Patent publication US8278345B2, “Inhibitors of glutaminyl cyclase” (Probiodrug AG, priority 2006, dated 2012)

Molecular target: hQC (Homo sapiens, UniProt Q16769)
Assay: Inhibitor assay for glutaminyl cyclase activity (fluorometric, H-Gln-βNA / H-Gln-AMC)
Format: biochemical
Conditions: compound from preparative synthesis, purified; read-out: IC50 hQC
Method in brief: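 Ki values came from fitting progress curves to a competitive inhibition model; rapid screens used 4 mM inhibitor with substrate at KM. QC activity was read at 30 °C via auxiliary pyroglutamyl aminopeptidase releasing βNA (0.2 mM H-Gln-βNA, 0.2 M Tris pH 8.0, 20 mM EDTA) or AMC (0.05 M Tris pH 8.0, 5 mM EDTA).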

Chain of hQC (Q16769 29-361): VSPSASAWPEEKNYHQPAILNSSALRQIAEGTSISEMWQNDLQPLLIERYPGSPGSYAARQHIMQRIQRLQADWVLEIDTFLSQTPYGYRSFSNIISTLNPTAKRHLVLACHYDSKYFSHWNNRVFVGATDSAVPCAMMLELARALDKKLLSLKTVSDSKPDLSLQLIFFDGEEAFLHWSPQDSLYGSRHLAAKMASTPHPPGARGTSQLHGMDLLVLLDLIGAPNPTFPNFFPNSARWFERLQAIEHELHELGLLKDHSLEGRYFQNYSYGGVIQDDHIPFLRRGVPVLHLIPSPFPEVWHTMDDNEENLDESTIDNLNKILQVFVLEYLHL

IC50 [nM]	SMILES
1040	O=C1C(O)=C(c2c[nH]c3ccccc23)C(c2ccccc2F)N1CCCn1ccnc1 (stereo not shown) [Compound 144, 5-(2-Fluoro-phenyl)-3-hydroxy-1-(3-imidazol-1-yl-propyl)-4-(1H-indol-3-yl)-1,5-dihydro-pyrrol-2-one]
236	CCCCCC1=C(O)C(=O)N(CCCn2ccnc2)C1c1cccc(Cl)c1 (stereo not shown) [Compound 216, 5-(3-Chloro-phenyl)-3-hydroxy-1-(3-imidazol-1-yl-propyl)-4-pentyl-1,5-dihydro-pyrrol-2-one]
434	O=C1C(O)=C(c2c[nH]c3ccccc23)C(c2ccccc2)N1CCCn1ccnc1 (stereo not shown) [Compound 127, 3-Hydroxy-1-(3-imidazol-1-yl-propyl)-4-(1H-indol-3-yl)-5-phenyl-1,5-dihydro-pyrrol-2-one]

Same assay, conditions: read-out: IC50

IC50 [nM]	SMILES
1660	CCCCCC1=C(O)C(=O)N(c2ccc3[nH]cnc3c2)C1c1cccc(F)c1 (stereo not shown) [Compound 323, 1-(1H-Benzoimidazol-5-yl)-5-(3-fluoro-phenyl)-3-hydroxy-4-pentyl-1,5-dihydro-pyrrol-2-one]
40	CC(=O)C1=C(O)C(=O)N(c2ccc3[nH]cnc3c2)C1c1cnc2ccccc2c1 (stereo not shown) [Compound 360, 4-Acetyl-1-(1H-benzoimidazol-5-yl)-3-hydroxy-5-quinolin-3-yl-1,5-dihydro-pyrrol-2-one]
3370	CC1=C(O)C(=O)N(c2ccc3[nH]cnc3c2)C1c1ccc(O)cc1O (stereo not shown) [Compound 265, 1-(1H-Benzoimidazol-5-yl)-5-(2,4-dihydroxy-phenyl)-3-hydroxy-4-methyl-1,5-dihydro-pyrrol-2-one]
670	CCC1=C(O)C(=O)N(c2ccc3[nH]cnc3c2)C1c1cc(C)ccc1O (stereo not shown) [Compound 282, 1-(1H-Benzoimidazol-5-yl)-4-ethyl-3-hydroxy-5-(2-hydroxy-5-methyl-phenyl)-1,5-dihydro-pyrrol-2-one]
40	O=C1C(O)=C(c2c[nH]c3ccccc23)C(c2ccccc2F)N1CCCn1ccnc1 (stereo not shown) [Compound 144, 5-(2-Fluoro-phenyl)-3-hydroxy-1-(3-imidazol-1-yl-propyl)-4-(1H-indol-3-yl)-1,5-dihydro-pyrrol-2-one]
400	CCC1=C(O)C(=O)N(CCCn2ccnc2)C1c1ccncc1 (stereo not shown) [Compound 244, 4-Ethyl-3-hydroxy-1-(3-imidazol-1-yl-propyl)-5-pyridin-4-yl-1,5-dihydro-pyrrol-2-one]
4090	CC(C)(C)C(=O)C1=C(O)C(=O)N(c2ccc3[nH]cnc3c2)C1c1cccc(F)c1F (stereo not shown) [Compound 383, 1-(1H-Benzoimidazol-5-yl)-5-(2,3-difluoro-phenyl)-4-(2,2-dimethyl-propionyl)-3-hydroxy-1,5-dihydro-pyrrol-2-one]
1300	CC1=C(O)C(=O)N(CCCn2ccnc2)C1c1ccc(CO)o1 (stereo not shown) [Compound 32, 3-Hydroxy-5-(5-hydroxymethyl-furan-2-yl)-1-(3-imidazol-1-yl-propyl)-4-methyl-1,5-dihydro-pyrrol-2-one]
5710	O=C1C(O)=C(c2cccc(O)c2)C(c2ccc(O)c(Br)c2)N1c1ccc2[nH]cnc2c1 (stereo not shown) [Compound 294, 1-(1H-Benzoimidazol-5-yl)-5-(3-bromo-4-hydroxy-phenyl)-3-hydroxy-4-(3-hydroxy-phenyl)-1,5-dihydro-pyrrol-2-one]
2200	O=C1C(O)=C(c2ccc(O)cc2)C(c2ncc[nH]2)N1CCCn1ccnc1 (stereo not shown) [Compound 168, 3-Hydroxy-4-(4-hydroxy-phenyl)-5-(1H-imidazol-2-yl)-1-(3-imidazol-1-yl-propyl)-1,5-dihydro-pyrrol-2-one]
40	O=C1C(O)=C(c2ccccc2)C(Cc2ccccc2)N1CCCn1ccnc1 (stereo not shown) [Compound 99, 5-Benzyl-3-hydroxy-1-(3-imidazol-1-yl-propyl)-4-phenyl-1,5-dihydro-pyrrol-2-one]
40	CCC1=C(O)C(=O)N(CCCn2ccnc2)C1c1cccc(Cl)c1 (stereo not shown) [Compound 249, 5-(3-Chloro-phenyl)-4-ethyl-3-hydroxy-1-(3-imidazol-1-yl-propyl)-1,5-dihydro-pyrrol-2-one]
1030	CC(=O)C1=C(O)C(=O)N(c2ccc3[nH]cnc3c2)C1c1ccc(C(=O)O)o1 (stereo not shown) [Compound 410, 5-[3-Acetyl-1-(1H-benzoimidazol-5-yl)-4-hydroxy-5-oxo-2,5-dihydro-1H-pyrrol-2-yl]-furan-2-carboxylic acid]
310	Cc1cc(C2C(C(=O)C3CC3)=C(O)C(=O)N2c2ccc3[nH]cnc3c2)cc(C)c1O (stereo not shown) [Compound 342, 1-(1H-Benzoimidazol-5-yl)-4-cyclopropanecarbonyl-3-hydroxy-5-(4-hydroxy-3,5-dimethyl-phenyl)-1,5-dihydro-pyrrol-2-one]
5260	O=C(C1=C(O)C(=O)N(c2ccc3[nH]cnc3c2)C1c1cc[nH]n1)C1CCCCC1 (stereo not shown) [Compound 379, 1-(1H-Benzoimidazol-5-yl)-4-cyclohexanecarbonyl-3-hydroxy-5-(1H-pyrazol-3-yl)-1,5-dihydro-pyrrol-2-one]
40	CCCCCC1=C(O)C(=O)N(CCCn2ccnc2)C1c1cc(Cl)cc(Cl)c1O (stereo not shown) [Compound 183, 5-(3,5-Dichloro-2-hydroxy-phenyl)-3-hydroxy-1-(3-imidazol-1-yl-propyl)-4-pentyl-1,5-dihydro-pyrrol-2-one]
400	CCCCCC1=C(O)C(=O)N(CCCn2ccnc2)C1c1cc[nH]n1 (stereo not shown) [Compound 188, 3-Hydroxy-1-(3-imidazol-1-yl-propyl)-4-pentyl-5-(1H-pyrazol-3-yl)-1,5-dihydro-pyrrol-2-one]
40	CCCCCC1=C(O)C(=O)N(CCCn2ccnc2)C1c1cccc(Cl)c1 (stereo not shown) [Compound 216, 5-(3-Chloro-phenyl)-3-hydroxy-1-(3-imidazol-1-yl-propyl)-4-pentyl-1,5-dihydro-pyrrol-2-one]
4360	CCC1=C(O)C(=O)N(c2ccc3[nH]cnc3c2)C1c1cc(Cl)ccc1O (stereo not shown) [Compound 276, 1-(1H-Benzoimidazol-5-yl)-5-(5-chloro-2-hydroxy-phenyl)-4-ethyl-3-hydroxy-1,5-dihydro-pyrrol-2-one]

IC50 [nM]	SMILES
580	Cc1ccc(C2C(C(=O)C3CCCCC3)=C(O)C(=O)N2c2ccc3[nH]cnc3c2)o1 (stereo not shown) [Compound 273, 1-(1H-Benzoimidazol-5-yl)-4-cyclohexanecarbonyl-3-hydroxy-5-(5-methyl-furan-2-yl)-1,5-dihydro-pyrrol-2-one]
40	CCC1=C(O)C(=O)N(CCCn2ccnc2)C1c1cccs1 (stereo not shown) [Compound 245, 4-Ethyl-3-hydroxy-1-(3-imidazol-1-yl-propyl)-5-thiophen-2-yl-1,5-dihydro-pyrrol-2-one]
130	CC(=O)C1=C(O)C(=O)N(c2ccc3[nH]cnc3c2)C1c1cccc(Cl)c1 (stereo not shown) [Compound 301, 4-Acetyl-1-(1H-benzoimidazol-5-yl)-5-(3-chloro-phenyl)-3-hydroxy-1,5-dihydro-pyrrol-2-one]
580	Cc1cccc(C2C(C(=O)CC(C)C)=C(O)C(=O)N2c2ccc3[nH]cnc3c2)c1 (stereo not shown) [Compound 458, 1-(1H-Benzoimidazol-5-yl)-3-hydroxy-4-(3-methyl-butyryl)-5-m-tolyl-1,5-dihydro-pyrrol-2-one]
5800	CCC1=C(O)C(=O)N(CCCn2ccnc2)C1/C=C/c1ccccc1 (stereo not shown) [Compound 235, 4-Ethyl-3-hydroxy-1-(3-imidazol-1-yl-propyl)-5-(styryl)-1,5-dihydro-pyrrol-2-one]
40	O=C1C(O)=C(c2ccc(O)cc2)C(c2ccc(O)cc2)N1CCCn1ccnc1 (stereo not shown) [Compound 181, 3-Hydroxy-4,5-bis-(4-hydroxy-phenyl)-1-(3-imidazol-1-yl-propyl)-1,5-dihydro-pyrrol-2-one]
2200	CC(C)C1=C(O)C(=O)N(CCCn2ccnc2)C1c1ccco1 (stereo not shown) [Compound 72, 5-Furan-2-yl-3-hydroxy-1-(3-imidazol-1-yl-propyl)-4-isopropyl-1,5-dihydro-pyrrol-2-one]
40	CCC/C=C/C1C(c2ccccc2)=C(O)C(=O)N1CCCn1ccnc1 (stereo not shown) [Compound 78, 3-Hydroxy-1-(3-imidazol-1-yl-propyl)-5-(pent-1-enyl)-4-phenyl-1,5-dihydro-pyrrol-2-one]
40	CCCCCC1=C(O)C(=O)N(CCCn2ccnc2)C1c1c[nH]c2ccccc12 (stereo not shown) [Compound 204, 3-Hydroxy-1-(3-imidazol-1-yl-propyl)-5-(1H-indol-3-yl)-4-pentyl-1,5-dihydro-pyrrol-2-one]
1300	O=C1C(O)=C(c2c[nH]c3ccccc23)C(c2cc(Cl)cc(Cl)c2O)N1CCCn1ccnc1 (stereo not shown) [Compound 113, 5-(3,5-Dichloro-2-hydroxy-phenyl)-3-hydroxy-1-(3-imidazol-1-yl-propyl)-4-(1H-indol-3-yl)-1,5-dihydro-pyrrol-2-one]
9490	Cc1cccc(C2C(C(C)C)=C(O)C(=O)N2c2ccc3[nH]cnc3c2)n1 (stereo not shown) [Compound 430, 1-(1H-Benzoimidazol-5-yl)-3-hydroxy-4-isopropyl-5-(6-methyl-pyridin-2-yl)-1,5-dihydro-pyrrol-2-one]
5890	O=C1C(O)=C(c2c[nH]c3ccccc23)C(c2cccc3cccnc23)N1c1ccc2[nH]cnc2c1 (stereo not shown) [Compound 281, 1-(1H-Benzoimidazol-5-yl)-3-hydroxy-4-(1H-indol-3-yl)-5-quinolin-8-yl-1,5-dihydro-pyrrol-2-one]
40	O=C1C(O)=C(c2c[nH]c3ccccc23)C(c2ccccc2)N1CCCn1ccnc1 (stereo not shown) [Compound 127, 3-Hydroxy-1-(3-imidazol-1-yl-propyl)-4-(1H-indol-3-yl)-5-phenyl-1,5-dihydro-pyrrol-2-one]
8590	CCCC(=O)C1=C(O)C(=O)N(c2ccc3[nH]cnc3c2)C1c1c[nH]c2ccccc12 (stereo not shown) [Compound 268, 1-(1H-Benzoimidazol-5-yl)-4-butyryl-3-hydroxy-5-(1H-indol-3-yl)-1,5-dihydro-pyrrol-2-one]
6340	CC(C)(C)C(=O)C1=C(O)C(=O)N(c2ccc3[nH]cnc3c2)C1c1nccs1 (stereo not shown) [Compound 402, 1-(1H-Benzoimidazol-5-yl)-4-(2,2-dimethyl-propionyl)-3-hydroxy-5-thiazol-2-yl-1,5-dihydro-pyrrol-2-one]
1300	O=C1C(O)=C(c2ccccc2)C(c2cccs2)N1CCCn1ccnc1 (stereo not shown) [Compound 103, 3-Hydroxy-1-(3-imidazol-1-yl-propyl)-4-phenyl-5-thiophen-2-yl-1,5-dihydro-pyrrol-2-one]
2200	CC(C)/C=C/C1C(c2ccc(O)cc2)=C(O)C(=O)N1CCCn1ccnc1 (stereo not shown) [Compound 153, 3-Hydroxy-4-(4-hydroxy-phenyl)-1-(3-imidazol-1-yl-propyl)-5-(3-methyl-but-1-enyl)-1,5-dihydro-pyrrol-2-one]
2200	CCCCC1C(CC)=C(O)C(=O)N1CCCn1ccnc1 (stereo not shown) [Compound 248, 5-Butyl-4-ethyl-3-hydroxy-1-(3-imidazol-1-yl-propyl)-1,5-dihydro-pyrrol-2-one]
